Laboratory results taken from PubChem BioAssay AID2060496 (Molecular Pharmacology Branch, DTP, NCI, 2025).

System: 276233-004-R-J1-PDC complex spheroid viability
Assay: Anticancer human tumor 276233-004-R-J1-PDC patient-derived colon adenocarcinoma cell line growth inhibition [GQUAD]
Settings: for IC50: curve of first compound; for viability, T/C: stronger effect = lower value
In short: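 Viability of tumor cells grown as complex spheroids with endothelial and stromal cells, exposed to drug combinations. Top concentration at or near clinical Cmax (else 10 microM), diluted in half-log increments.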
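Also: spheroids exposed to drugs for seven days.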
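For viability, T/C in this document: 100% = DMSO vehicle control viability.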

**Q.** How did the IC50 (second compound 0.0316 µM) turn out when `C=CCn1c(=O)c2cnc(Nc3ccc(N4CCN(C)CC4)cc3)nc2n1-c1cccc(C(C)(C)O)n1` + Cc1[nH]c2ccc(F)cc2c1-c1nc2c3cccnc3c3ncccc3c2[nH]1 was run?
**A.** > 10000 nM

**Q.** What about the IC50 (second compound 0.1 µM) of the same molecule?
**A.** > 10000 nM

**Q.** And the IC50 (second compound 0.316 µM)?
**A.** > 10000 nM

**Q.** And the IC50 (second compound 1 µM)?
**A.** 104 nM

**Q.** And the IC50 (second compound 3.16 µM)?
**A.** < 31.6 nM

**Q.** And the IC50 (second compound 10 µM)?
**A.** < 31.6 nM

**Q.** And the viability, T/C (second compound 0.0316 µM, first compound 0.0316 µM)?
**A.** 98.8%

**Q.** What about the viability, T/C (second compound 0.0316 µM, first compound 0.1 µM) of the same molecule?
**A.** 86.5%

**Q.** What about the viability, T/C (second compound 0.0316 µM, first compound 0.316 µM) of the same molecule?
**A.** 71.4%

**Q.** What about the viability, T/C (second compound 0.0316 µM, first compound 1 µM) of the same molecule?
**A.** 67.8%

**Q.** What about the viability, T/C (second compound 0.0316 µM, first compound 3.16 µM) of the same molecule?
**A.** 66.8%

**Q.** And the viability, T/C (second compound 0.0316 µM, first compound 10 µM)?
**A.** 66.6%

**Q.** And the viability, T/C (second compound 0.1 µM, first compound 0.0316 µM)?
**A.** 79.6%

**Q.** What about the viability, T/C (second compound 0.1 µM, first compound 0.1 µM) of the same molecule?
**A.** 79.5%

**Q.** And the viability, T/C (second compound 0.1 µM, first compound 0.316 µM)?
**A.** 64.5%

**Q.** And the viability, T/C (second compound 0.1 µM, first compound 1 µM)?
**A.** 48.3%

**Q.** What about the viability, T/C (second compound 0.1 µM, first compound 3.16 µM) of the same molecule?
**A.** 61%

**Q.** What about the viability, T/C (second compound 0.1 µM, first compound 10 µM) of the same molecule?
**A.** 52.7%

**Q.** And the viability, T/C (second compound 0.316 µM, first compound 0.0316 µM)?
**A.** 64%

**Q.** And the viability, T/C (second compound 0.316 µM, first compound 0.1 µM)?
**A.** 58.4%

**Q.** And the viability, T/C (second compound 0.316 µM, first compound 0.316 µM)?
**A.** 60.2%

**Q.** What about the viability, T/C (second compound 0.316 µM, first compound 1 µM) of the same molecule?
**A.** 41.1%

**Q.** What about the viability, T/C (second compound 0.316 µM, first compound 3.16 µM) of the same molecule?
**A.** 56.9%

**Q.** What about the viability, T/C (second compound 0.316 µM, first compound 10 µM) of the same molecule?
**A.** 61.4%

**Q.** And the viability, T/C (second compound 1 µM, first compound 0.0316 µM)?
**A.** 53.8%

**Q.** What about the viability, T/C (second compound 1 µM, first compound 0.1 µM) of the same molecule?
**A.** 53.9%

**Q.** What about the viability, T/C (second compound 1 µM, first compound 0.316 µM) of the same molecule?
**A.** 48%

**Q.** And the viability, T/C (second compound 1 µM, first compound 1 µM)?
**A.** 36.4%

**Q.** What about the viability, T/C (second compound 1 µM, first compound 3.16 µM) of the same molecule?
**A.** 51.7%

**Q.** And the viability, T/C (second compound 1 µM, first compound 10 µM)?
**A.** 50.4%

**Q.** What about the viability, T/C (second compound 3.16 µM, first compound 0.0316 µM) of the same molecule?
**A.** 16.3%

**Q.** What about the viability, T/C (second compound 3.16 µM, first compound 0.1 µM) of the same molecule?
**A.** 14%

**Q.** And the viability, T/C (second compound 3.16 µM, first compound 0.316 µM)?
**A.** 28.1%

**Q.** What about the viability, T/C (second compound 3.16 µM, first compound 1 µM) of the same molecule?
**A.** 18.1%

**Q.** What about the viability, T/C (second compound 3.16 µM, first compound 3.16 µM) of the same molecule?
**A.** 20.2%

**Q.** And the viability, T/C (second compound 3.16 µM, first compound 10 µM)?
**A.** 23.9%

**Q.** What about the viability, T/C (second compound 10 µM, first compound 0.0316 µM) of the same molecule?
**A.** 36.8%

**Q.** What about the viability, T/C (second compound 10 µM, first compound 0.1 µM) of the same molecule?
**A.** 35.8%

**Q.** What about the viability, T/C (second compound 10 µM, first compound 0.316 µM) of the same molecule?
**A.** 32.8%

**Q.** And the viability, T/C (second compound 10 µM, first compound 1 µM)?
**A.** 26.7%

**Q.** And the viability, T/C (second compound 10 µM, first compound 3.16 µM)?
**A.** 30.3%

**Q.** And the viability, T/C (second compound 10 µM, first compound 10 µM)?
**A.** 35.4%
